Series [1] concerns Yeast (Δyhb1). The format is cell-based, Saccharomyces cerevisiae. Particulars: growth monitored by absorbance at 600 nm. Here is the method: The YHB1 gene was deleted from yeast strain CG-1945 and the absence of NO consumption activity was verified (Liu et al., 2000). Yeast two-hybrid screening was then performed in the CG-1945-Ayhbl host. […]
Yeast (Δyhb1) were transformed with Gal4 BD-caspase-3 plasmid (bait) and a cDNA library (Gal4 AD prey plasmids) derived from activated (NO generating) macrophages. […] DETA-NO at less than 300 μM generates NO without inhibiting yeast growth (monitored by absorbance at 600 nm). Steady state NO concentrations are maintained at ˜100 nM–1 μM range for several days as measured with an NO electrode (not shown).
(§1) To assess the possibility of NO-dependent regulation of protein-protein interactions in a cellular context, a modified yeast two-hybrid screening methodology was developed. […] It was also necessary to establish a concentration range of DETA-NO over which physiological amounts of NO could be generated in these assays without impairing yeast growth (FIG. 1A) (100 μM DETA-NO produces steady state concentrations of ˜300 nM NO in yeast culture medium, as determined using an NO electrode)

The format of series [2] is physicochemical. Here is the method: (§2) Yeast (Δyhb1) were transformed with Gal4 BD-caspase-3 plasmid (bait) and a cDNA library (Gal4 AD prey plasmids) derived from activated (NO generating) macrophages. Screening was performed as described in the methods below. DETA-NO at less than 300 μM generates NO without inhibiting yeast growth (monitored by absorbance at 600 nm). Steady state NO concentrations are maintained at ˜100 nM–1 μM range for several days as measured with an NO electrode (not shown).
as §1, with “developed. The first step was to delete the yeast flavohemoglobin gene (Liu et al., 2000), which consumes NO very efficiently and thus obfuscates NO signaling.” for “developed.”
Purified caspase-3 was incubated in the presence or absence 20 μM DETA-NO for 60 min (30 nM steady state NO), followed by incubation with ASM at 37° C. for 2 hrs, and IP with caspase-3 antibody. […] S-nitrosylation of caspase-3 by NO was separately verified by photolysis-chemiluminesence (Mannick et al., 1999). The interaction of caspase-3 with ASM was measured as ASM activity in caspase-3 IP's (pH 5.0). Little or no ASM activity was present in IP's with caspase-3 antibody of either caspase-3 or ASM in isolation.
To determine the relevant target(s) of NO, ASM/caspase-3 co-precipitations were carried out following NO treatment of each partner alone. Using an ASM activity assay, the amounts of ASM that could be precipitated with a procaspase-3 antibody was assessed from co-incubates (2 hours at 37° C.) of ASM (20 pmol) and caspase-3 in limiting amounts (2.5 pmol). […]

In series [3] the target is T1, caspase-3 interaction with iNOS / ASM (Homo sapiens, UniProt P42574).
T1 construct: expressed in transfected cells; host or cells: Saccharomyces cerevisiae CG-1945 Δyhb1
T1 sequence (P42574 1-277): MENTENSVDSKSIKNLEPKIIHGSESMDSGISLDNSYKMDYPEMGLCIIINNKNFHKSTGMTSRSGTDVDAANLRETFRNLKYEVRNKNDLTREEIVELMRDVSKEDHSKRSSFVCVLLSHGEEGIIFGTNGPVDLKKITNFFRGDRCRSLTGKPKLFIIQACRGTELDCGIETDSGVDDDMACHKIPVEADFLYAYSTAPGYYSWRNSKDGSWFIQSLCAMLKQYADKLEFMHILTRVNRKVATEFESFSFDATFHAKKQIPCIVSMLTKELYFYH
Put plainly: Modified yeast two-hybrid, NO-dependent growth of iNOS/caspase-3 and ASM/caspase-3 clones. Format: cell-based. Conditions: 72 hrs, triple-deficient medium. As to the method: as §2
Auxotrophic selection was carried out on agar plates (15 cm in diameter) enriched in 50 mM phosphate buffer (pH 7.2; His-Trp-Leu (triple)-deficient buffered medium (TDBM)). […] Prey plasmids were isolated from positive yeast clones and then re-introduced into the bait strain to confirm bait-prey interactions. Method 2: After cells were seeded on 1.5% agar they were covered with 3% low melting point agar, which in turn was layered with culture medium. NO donors (e.g. DETA-NO; 300 μM final concentration) were added to the liquid layer every 24 hours. Colonies are grown for 4 days as described in ref 9. Method 3:
Auxotrophic selection was carried out in TDBM. Transformation with the cDNA library was followed by overnight growth in medium deficient in tryptophan and leucine. Transformants were then grown for 3 days in His-deficient medium supplemented with DETA-NO (typically 200 μM final concentration). […]

Series [4] has as its target T2, caspase-3/ASM interaction in HEK-293 cells (Homo sapiens, UniProt P42574).
T2 construct: endogenous in cells; host or cells: HEK-293
T2 sequence (P42574 29-277): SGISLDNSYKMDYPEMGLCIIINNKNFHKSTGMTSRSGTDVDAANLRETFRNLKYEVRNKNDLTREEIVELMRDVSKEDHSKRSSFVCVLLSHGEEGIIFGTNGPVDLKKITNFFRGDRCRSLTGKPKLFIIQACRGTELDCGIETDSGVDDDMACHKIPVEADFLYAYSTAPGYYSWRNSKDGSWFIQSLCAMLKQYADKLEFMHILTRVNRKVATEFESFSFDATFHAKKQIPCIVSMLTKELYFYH
T2 sequence (P17405 47-631 partner): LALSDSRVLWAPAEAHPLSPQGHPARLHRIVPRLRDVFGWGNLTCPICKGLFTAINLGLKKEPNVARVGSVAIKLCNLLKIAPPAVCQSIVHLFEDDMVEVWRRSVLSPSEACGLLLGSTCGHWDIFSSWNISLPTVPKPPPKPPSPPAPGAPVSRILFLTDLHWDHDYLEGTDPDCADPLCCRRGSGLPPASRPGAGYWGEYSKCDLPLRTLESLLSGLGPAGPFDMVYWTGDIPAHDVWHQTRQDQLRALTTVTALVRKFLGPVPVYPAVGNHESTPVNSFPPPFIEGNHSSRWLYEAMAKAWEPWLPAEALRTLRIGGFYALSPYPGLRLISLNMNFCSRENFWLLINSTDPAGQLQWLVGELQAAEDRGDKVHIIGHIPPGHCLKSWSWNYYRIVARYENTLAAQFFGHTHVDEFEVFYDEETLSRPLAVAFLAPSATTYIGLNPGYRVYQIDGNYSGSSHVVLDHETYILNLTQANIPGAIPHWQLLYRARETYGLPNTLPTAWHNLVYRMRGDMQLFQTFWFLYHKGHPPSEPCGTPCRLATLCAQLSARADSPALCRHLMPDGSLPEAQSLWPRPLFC
Put plainly: Caspase-3 immunoprecipitation, ASM blot, HEK-293 cells exposed to DETA-NO. Format: cell-based. Conditions: 200 μM DETA-NO. As to the method:
(§3) Thirty million cells were lysed by gentle homogenization in 1 ml IP buffer (10 mM NaPi, 100 mM NaCl, 1 mM EDTA, pH 7.9, with protease inhibitor cocktail). The supernatant obtained by centrifugation at 20,000 g for 10 min was used for immunoprecipitation. Caspase-3 immunoprecipitates (2.5 μg anti-caspase-3 monoclonal antibody, Transduction Laboratories) were washed, separated on 10% SDS-PAGE, and blotted with ASM antisera (Santa Cruz Biotechnology); 5% of the sample was blotted for caspase-3.
Bulotta et al., 2001; De Nadal et al., 2000). […] To define further the NO requirement for this interaction, caspase-3 was immunoprecipitated from wild-type HEK cells and from HEK cells stably transfected with nNOS (Bredt et al., 1992), in the presence and absence of the NOS inhibitor L-NMMA. Little or no ASM was pulled down in precipitates from wild-type HEK cells, whereas ASM was readily detected in the precipitates from nNOS-expressing cells (FIG. 2). Moreover, ASM/caspase-3 interactions were observed not only between the 57 kD mature form of ASM, but also with the ASM proform (75 kD) and a smaller processed form (47 kD), which may be alternatively regulated (Ferlinz et al., 1994; Hurwitz et al., 1994).

Series [5] has as its system ASM/caspase-3 interaction in nNOS-expressing HEK cells. Put plainly: Caspase-3 IP from nNOS-expressing HEK cells, ASM isoforms. The format is cell-based, Human. Particulars: L-NMMA 3 mM. Here is the method:
as §3
Amounts of ASM isoforms (47, 57, 75 kDa) in caspase-3 immunoprecipitates (IP) from wild type (WT) vs. nNOS-expressing HEK cells were normalized with respect to the amounts of caspase-3 in the IPs (FIG. 2, bar graphs); IPs were performed in the presence and absence of the NOS inhibitor, LNMMA (3 mM). nNOS vs. WT (single asterisk, P<0.01) and nNOS vs. nNOS+LNMMA (double asterisk, p<0.05). A and B, n=7–14; C, n=3–5.
Bulotta et al., 2001; De Nadal et al., 2000). […] To define further the NO requirement for this interaction, caspase-3 was immunoprecipitated from wild-type HEK cells and from HEK cells stably transfected with nNOS (Bredt et al., 1992), in the presence and absence of the NOS inhibitor L-NMMA. Little or no ASM was pulled down in precipitates from wild-type HEK cells, whereas ASM was readily detected in the precipitates from nNOS-expressing cells (FIG. 2). […]

Series [6] addresses T3, eNOS/caspase-3 interaction in eNOS-expressing HEK cells (Bos taurus, UniProt P29473).
T3 construct: expressed in transfected cells; host or cells: HEK-293 expressing eNOS
Put plainly: Caspase-3 IP from eNOS-expressing HEK cells, amounts of eNOS. Conditions: L-NMMA 3 mM with L-arginine 1 mM/Ca2+ 200 μM. The format is cell-based, Human. As to the method: HEK cell lysates from wild type (WT), nNOS- and eNOS-expressing cells were immunoprecipitated with caspase-3 monoclonal antibodies and blotted (IB) for nNOS, eNOS, and caspase-3, respectively. eNOS, nNOS and caspase-3 in whole cell lysates (Lysate) and in IPs from those lysates (7–20% SDS-PAGE) are shown. Data are representative of 5 similar experiments. eNOS and nNOS were not detectable in control IPs (not shown).
eNOS-expressing HEK cells were treated with L-arginine (1 mM)/Ca^2+ (200 μM) (to activate NOS) in the presence or absence of L-NMMA (3 mM) (to inhibit NOS activation). Amounts of eNOS were quantified from scanned Western blots (7–20% SDS-PAGE) and normalized with respect to amounts of caspase in the IP (bar graph), (n=3).
To probe further the physiological relevance of NO-dependent protein-protein interactions of NOS, the effects of NOS activity on binding of caspase-3 were assessed. […] Thus, NOS reversibly regulates its own binding to capase-3 through NO production.

In series [7] the test system is caspase-3 interactions with ASM, IRG, PGM, iNOS. As to the method: For this purpose, protein-protein interactions were determined in a yeast two-hybrid system by the method described in Uetz, P., et al., Nature 403, 623–627 (2000) and Ito, T., et al., PNAS, 97, 1143–1147 (2000). The baits were all known proteins involved in apoptotic cascades. The preys were a library of macrophage genes (mRNA) expressed in response to cytokines that induce apoptosis. Mating pairs or transfectants were exposed to continuous nitric oxide presence at levels and flux rates mimicking those which are generated in macrophages, over 18 hours (the time course, over which apoptosis occurs in these cells). Room air was used in the determinations to mimic the cell condition at first and subsequently low pO2 (about 5 mm Hg) was used to improve specificity and increase yield. New partners and/or inhibition of partners that were otherwise present, were sought.

The results in this text go back to US7229762B2, “Proteomic screening for redox state dependent protein—protein interactions” (Duke University Medical Center, priority 2003, dated 2007).

Usually half-life stands for how long it takes for the measured level to halve. High values mean slow loss, low ones fast loss.

SMILES strings stand for the structures.

Regarding `NCCN(CCN)/[N+]([O-])=N/O` [DETA-NO, diethylenetriamine-NO], the “DETA-NO concentration that generates NO without inhibiting yeast growth” value in series [1] is given as “less than 300 μM”. Moreover, in series [2], the half-life is approximately 18 h. Moreover, the “steady state / maximum NO concentration” value in series [2] (20 μM DETA-NO, 60 min) was 30 nM. In series [2] (100 μM DETA-NO, yeast culture medium, NO electrode), the “steady state concentration of NO” value is reported as approximately 300 nM. Also, in series [3], the “concentration that optimally induced in yeast the interactions of caspase-3 with ASM and iNOS” value amounted to 200 µM. Also, the “co-precipitation of ASM with caspase-3” value in series [4] is “immunoprecipitation of caspase-3 brought down the 57 kD active form of ASM”.

As for `CNC(=N)NCCC[C@H](N)C(=O)O` [L-NMMA], the “effect on interaction between ASM isoforms and caspase-3” value in series [5] is listed as “significantly reduced the interaction”. In series [6], the “effect on eNOS interaction with caspase-3 after NOS activation” value is reported as “almost completely reversed this effect”.

Take `OO` [hydrogen peroxide]: the “effect of presence of hydrogen peroxide on determined interactions” value in series [7] is given as “did not produce or modify the majority of determined interactions”. Also, the “interaction dependent on hydrogen peroxide in the 4 clones” value in series [7] (added repeatedly or generated continuously with glucose oxidase) is listed as “none was found”.
